From the NIST ThermoML archive (doi:10.1021/je800416y)

How the values were obtained:
[1] = xn = mol fraction of the nth substance listed; details: 101 kPa, Liquid
[2] = wn = mass fraction of the nth substance listed; details: 101 kPa, Liquid

CN(CCO)CCO [N-methyldiethanolamine] + O
mass density [kg/m3]
Details | 298.15 K | 303.15 K | 308.15 K | 313.15 K | 318.15 K | 323.15 K | 328.15 K | 333.15 K | 338.15 K
[1], x1 = 0.0128 | 1004.06 | 1002.48 | 1000.7 | 998.731 | 996.584 | 994.273 | 991.808 | 989.191 | 986.433
[1], x1 = 0.0212 | 1008.41 | 1006.7 | 1004.8 | 1002.72 | 1000.48 | 998.073 | 995.518 | 992.82 | 989.984
[1], x1 = 0.0498 | 1020.08 | 1017.93 | 1015.63 | 1013.18 | 1010.59 | 1007.87 | 1005.02 | 1002.04 | 998.939
[1], x1 = 0.0645 | 1026.39 | 1023.98 | 1021.43 | 1018.77 | 1015.98 | 1013.06 | 1010.03 | 1006.73 | 1003.61
[1], x1 = 0.0799 | 1030.85 | 1028.25 | 1025.53 | 1022.69 | 1019.74 | 1016.68 | 1013.51 | 1010.24 | 1006.85
[1], x1 = 0.1332 | 1042.8 | 1039.65 | 1036.42 | 1033.1 | 1029.71 | 1026.23 | 1022.67 | 1019.02 | 1015.29
[1], x1 = 0.1557 | 1045.44 | 1042.17 | 1038.83 | 1035.41 | 1031.92 | 1028.34 | 1024.69 | 1020.96 | 1017.15
[1], x1 = 0.1944 | 1049.91 | 1046.42 | 1042.86 | 1039.23 | 1035.54 | 1031.78 | 1027.97 | 1024.08 | 1020.13
[1], x1 = 0.2407 | 1050.84 | 1048.11 | 1044.45 | 1040.73 | 1036.95 | 1033.11 | 1029.25 | 1025.29 | 1021.29
[1], x1 = 0.2725 | 1052.41 | 1048.8 | 1045.14 | 1041.41 | 1037.63 | 1033.74 | 1029.77 | 1025.95 | 1021.9
[1], x1 = 0.366 | 1052.54 | 1048.78 | 1044.97 | 1041.1 | 1037.2 | 1033.24 | 1029.24 | 1025.2 | 1021.1
[1], x1 = 0.4302 | 1050.97 | 1047.2 | 1043.38 | 1039.51 | 1035.6 | 1031.66 | 1027.68 | 1023.66 | 1019.6
[1], x1 = 0.5642 | 1046.85 | 1043.08 | 1039.28 | 1035.45 | 1031.61 | 1027.75 | 1023.83 | 1019.88 | 1015.88
[1], x1 = 0.6687 | 1041.44 | 1037.68 | 1033.89 | 1030.08 | 1026.25 | 1022.4 | 1018.52 | 1014.62 | 1010.7
[1], x1 = 0.7531 | 1039.27 | 1035.87 | 1031.92 | 1028.73 | 1025.02 | 1020.86 | 1016.84 | 1012.83 | 1008.96
[2], w1 = 0.3228 | 1027.27 | 1024.82 | 1022.16 | 1019.44 | 1016.54 | 1013.63 | 1010.47 | 1007.39 | 1003.91
[2], w1 = 0.488 | 1041.37 | 1038.16 | 1034.94 | 1031.74 | 1028.35 | 1024.83 | 1021.38 | 1017.75 | 1014.17
